Biological target: T1, AsPC-1 HiBiT-KRASG12D (Homo sapiens, UniProt P01116, G12D)
T1 construct: insert the HiBiT tag onto the N-terminus of one or more of the endogenous KRAS alleles; endogenous in cells; host or cells: AsPC-1 (ATCC CRL-1682), CRISPR-Cas9 knock-in clone, one tagged allele
Assay: HiBiT degradation assay (G12D), AsPC-1 HiBiT-KRASG12D cells
Format: cell-based
Conditions: 24 hours treatment; for Dmax: ASPC1, AsPC-1 HiBiT-KRASG12D cells, maximum degradation observed; for DC50: AsPC-1 HiBiT-KRASG12D cells, HiBiT luminescence
How it was run: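 HiBiT-KRAS abundance was read as Nano-Glo HiBiT lytic luminescence (45 min, room temperature) after a PBS wash. Before that, a 4 h alamar blue fluorescence read, normalized to DMSO, monitored viability. Treatment lasted 24 hours at 37 °C, in triplicate, using AsPC-1 cells with endogenous N-terminally HiBiT-tagged KRAS G12D.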

T1 sequence (P01116 1-188 isoform P01116-2 G12D): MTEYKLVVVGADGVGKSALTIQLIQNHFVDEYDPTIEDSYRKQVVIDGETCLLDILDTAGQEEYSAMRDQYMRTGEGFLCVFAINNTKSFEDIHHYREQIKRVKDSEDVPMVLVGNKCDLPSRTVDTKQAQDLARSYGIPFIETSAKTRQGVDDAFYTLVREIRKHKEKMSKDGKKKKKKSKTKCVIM

Compound	Dmax	DC50
CCc1cccc2cc(O)cc(-c3ncc4c(N5CC6CCC(C5)N6)nc(OC[C@@]56CCCN5[C@H](CN5CCC7(CC5)CN(c5cc([C@H](C(=O)N8C[C@H](O)C[C@H]8C(=O)N[C@@H](C)c8ccc(-c9scnc9C)cc8)C(C)C)on5)C7)CC6)nc4c3F)c12 [Compound 88, (2S,4R)-1-[(2R)-2-[3-(7-{[(3S,7aS)-7a-{[(4-{3,8-diazabicyclo[3.2.1]octan-3-yl}-7-(8-ethyl-3-hydroxynaphthalen-1-yl)-8-fluoropyrido[4,3-d]pyrimidin-2-yl)oxy]methyl}-hexahydro-1H-pyrrolizin-3-yl]methyl}-2,7-diazaspiro[3.5]nonan-2-yl)-1,2-oxazol-5-yl]-3-methylbutanoyl]-4-hydroxy-N-[(1S)-1-[4-(4-methyl-1,3-thiazol-5-yl)phenyl]ethyl]pyrrolidine-2-carboxamide]	80 to 100%	< 0.6 µM
CCc1cccc2cc(O)cc(-c3ncc4c(N5CC6CCC(C5)N6)nc(OC[C@@]56CCCN5[C@H](COC(=O)N(C)Cc5cc([C@H](C(=O)N7C[C@H](O)C[C@H]7C(=O)N[C@@H](C)c7ccc(-c8scnc8C)cc7)C(C)C)on5)CC6)nc4c3F)c12 [Compound 90, [(3S,7aS)-7a-{[(4-{3,8-diazabicyclo[3.2.1]octan-3-yl}-7-(8-ethyl-3-hydroxynaphthalen-1-yl)-8-fluoropyrido[4,3-d]pyrimidin-2-yl)oxy]methyl}-hexahydro-1H-pyrrolizin-3-yl]methyl N-({5-[(2R)-1-[(2S,4R)-4-hydroxy-2-{[(1S)-1-[4-(4-methyl-1,3-thiazol-5-yl)phenyl]ethyl]carbamoyl}pyrrolidin-1-yl]-3-methyl-1-oxobutan-2-yl]-1,2-oxazol-3-yl}methyl)-N-methylcarbamate]	80 to 100%	< 0.6 µM
CCc1cccc2cc(O)cc(-c3ncc4c(N5CC6CCC(C5)N6)nc(OC[C@@]56CCCN5[C@H](COC(=O)N(C)Cc5cc([C@@H](C(=O)N7C[C@H](O)C[C@H]7C(=O)N[C@@H](C)c7ccc(-c8scnc8C)cc7)C(C)C)on5)CC6)nc4c3F)c12 [Compound 91, [(3S,7aS)-7a-{[(4-{3,8-diazabicyclo[3.2.1]octan-3-yl}-7-(8-ethyl-3-hydroxynaphthalen-1-yl)-8-fluoropyrido[4,3-d]pyrimidin-2-yl)oxy]methyl}-hexahydro-1H-pyrrolizin-3-yl]methyl N-({5-[(2S)-1-[(2S,4R)-4-hydroxy-2-{[(1S)-1-[4-(4-methyl-1,3-thiazol-5-yl)phenyl]ethyl]carbamoyl}pyrrolidin-1-yl]-3-methyl-1-oxobutan-2-yl]-1,2-oxazol-3-yl}methyl)-N-methylcarbamate]	20 to 60%	1 to 3 µM
CCc1cccc2cc(O)cc(-c3ncc4c(N5CC6CCC(C5)N6)nc(OC[C@]56CCCN5[C@@H](COC(=O)N(C)Cc5cc([C@H](C(=O)N7C[C@H](O)C[C@H]7C(=O)N[C@@H](C)c7ccc(-c8scnc8C)cc7)C(C)C)on5)CC6)nc4c3F)c12 [Compound 92, [(3R,7aR)-7a-{[(4-{3,8-diazabicyclo[3.2.1]octan-3-yl}-7-(8-ethyl-3-hydroxynaphthalen-1-yl)-8-fluoropyrido[4,3-d]pyrimidin-2-yl)oxy]methyl}-hexahydro-1H-pyrrolizin-3-yl]methyl N-({5-[(2R)-1-[(2S,4R)-4-hydroxy-2-{[(1S)-1-[4-(4-methyl-1,3-thiazol-5-yl)phenyl]ethyl]carbamoyl}pyrrolidin-1-yl]-3-methyl-1-oxobutan-2-yl]-1,2-oxazol-3-yl}methyl)-N-methylcarbamate]	80 to 100%	< 0.6 µM
CCc1cccc2cc(O)cc(-c3ncc4c(N5CC6CCC(C5)N6)nc(OC[C@]56CCCN5[C@@H](COC(=O)N(C)Cc5cc([C@@H](C(=O)N7C[C@H](O)C[C@H]7C(=O)N[C@@H](C)c7ccc(-c8scnc8C)cc7)C(C)C)on5)CC6)nc4c3F)c12 [Compound 93, [(3R,7aR)-7a-{[(4-{3,8-diazabicyclo[3.2.1]octan-3-yl}-7-(8-ethyl-3-hydroxynaphthalen-1-yl)-8-fluoropyrido[4,3-d]pyrimidin-2-yl)oxy]methyl}-hexahydro-1H-pyrrolizin-3-yl]methyl N-({5-[(2S)-1-[(2S,4R)-4-hydroxy-2-{[(1S)-1-[4-(4-methyl-1,3-thiazol-5-yl)phenyl]ethyl]carbamoyl}pyrrolidin-1-yl]-3-methyl-1-oxobutan-2-yl]-1,2-oxazol-3-yl}methyl)-N-methylcarbamate]	20 to 60%	1 to 3 µM
CCc1cccc2cc(O)cc(-c3ncc4c(N5CC6CCC(C5)N6)nc(OC[C@@]56CCCN5[C@H](CN5CCN(c7cc([C@H](C(=O)N8C[C@H](O)C[C@H]8C(=O)N[C@@H](C)c8ccc(-c9scnc9C)cc8)C(C)C)on7)CC5)CC6)nc4c3F)c12 [Compound 94, (2S,4R)-1-[(2R)-2-[3-(4-{[(3S,7aS)-7a-{[(4-{3,8-diazabicyclo[3.2.1]octan-3-yl}-7-(8-ethyl-3-hydroxynaphthalen-1-yl)-8-fluoropyrido[4,3-d]pyrimidin-2-yl)oxy]methyl}-hexahydro-1H-pyrrolizin-3-yl]methyl}piperazin-1-yl)-1,2-oxazol-5-yl]-3-methylbutanoyl]-4-hydroxy-N-[(1S)-1-[4-(4-methyl-1,3-thiazol-5-yl)phenyl]ethyl]pyrrolidine-2-carboxamide]	80 to 100%	< 0.6 µM
CCc1cccc2cc(O)cc(-c3ncc4c(N5CC6CCC(C5)N6)nc(OC[C@@]56CCCN5[C@H](CN5CCN(c7cc([C@@H](C(=O)N8C[C@H](O)C[C@H]8C(=O)N[C@@H](C)c8ccc(-c9scnc9C)cc8)C(C)C)on7)CC5)CC6)nc4c3F)c12 [Compound 95, (2S,4R)-1-[(2S)-2-[3-(4-{[(3S,7aS)-7a-{[(4-{3,8-diazabicyclo[3.2.1]octan-3-yl}-7-(8-ethyl-3-hydroxynaphthalen-1-yl)-8-fluoropyrido[4,3-d]pyrimidin-2-yl)oxy]methyl}-hexahydro-1H-pyrrolizin-3-yl]methyl}piperazin-1-yl)-1,2-oxazol-5-yl]-3-methylbutanoyl]-4-hydroxy-N-[(1S)-1-[4-(4-methyl-1,3-thiazol-5-yl)phenyl]ethyl]pyrrolidine-2-carboxamide]		> 3 µM
CCc1cccc2cc(O)cc(-c3ncc4c(N5CC6CCC(C5)N6)nc(OC[C@@]56CCCN5[C@H](CN5CCC(COc7cc([C@H](C(=O)N8C[C@H](O)C[C@H]8C(=O)N[C@@H](C)c8ccc(-c9scnc9C)cc8)C(C)C)on7)CC5)CC6)nc4c3F)c12 [Compound 96, (2S,4R)-1-[(2R)-2-{3-[(1-{[(3S,7aS)-7a-{[(4-{3,8-diazabicyclo[3.2.1]octan-3-yl}-7-(8-ethyl-3-hydroxynaphthalen-1-yl)-8-fluoropyrido[4,3-d]pyrimidin-2-yl)oxy]methyl}-hexahydro-1H-pyrrolizin-3-yl]methyl}piperidin-4-yl)methoxy]-1,2-oxazol-5-yl}-3-methylbutanoyl]-4-hydroxy-N-[(1S)-1-[4-(4-methyl-1,3-thiazol-5-yl)phenyl]ethyl]pyrrolidine-2-carboxamide]	80 to 100%	< 0.6 µM
CCc1cccc2cc(O)cc(-c3ncc4c(N5CC6CCC(C5)N6)nc(OC[C@@]56CCCN5[C@H](CN5CCC(COc7cc([C@@H](C(=O)N8C[C@H](O)C[C@H]8C(=O)N[C@@H](C)c8ccc(-c9scnc9C)cc8)C(C)C)on7)CC5)CC6)nc4c3F)c12 [Compound 97, (2S,4R)-1-[(2S)-2-{3-[(1-{[(3S,7aS)-7a-{[(4-{3,8-diazabicyclo[3.2.1]octan-3-yl}-7-(8-ethyl-3-hydroxynaphthalen-1-yl)-8-fluoropyrido[4,3-d]pyrimidin-2-yl)oxy]methyl}-hexahydro-1H-pyrrolizin-3-yl]methyl}piperidin-4-yl)methoxy]-1,2-oxazol-5-yl}-3-methylbutanoyl]-4-hydroxy-N-[(1S)-1-[4-(4-methyl-1,3-thiazol-5-yl)phenyl]ethyl]pyrrolidine-2-carboxamide]	20 to 60%	0.6 to 1 µM
CCc1cccc2cc(O)cc(-c3ncc4c(N5CC6CCC(C5)N6)nc(OC[C@@]56CCCN5[C@H](COC(=O)NCc5cc([C@@H](C(=O)N7C[C@H](O)C[C@H]7C(=O)N[C@@H](C)c7ccc(-c8scnc8C)cc7)C(C)C)on5)CC6)nc4c3F)c12 [Compound 100, [(3S,7aS)-7a-{[(4-{3,8-diazabicyclo[3.2.1]octan-3-yl}-7-(8-ethyl-3-hydroxynaphthalen-1-yl)-8-fluoropyrido[4,3-d]pyrimidin-2-yl)oxy]methyl}-hexahydro-1H-pyrrolizin-3-yl]methyl N-({5-[(2S)-1-[(2S,4R)-4-hydroxy-2-{[(1S)-1-[4-(4-methyl-1,3-thiazol-5-yl)phenyl]ethyl]carbamoyl}pyrrolidin-1-yl]-3-methyl-1-oxobutan-2-yl]-1,2-oxazol-3-yl}methyl) carbamate]	20 to 60%	1 to 3 µM
CCc1cccc2cc(O)cc(-c3ncc4c(N5CC6CCC(C5)N6)nc(O[C@H](C)CN5CCC(COc6cc([C@H](C(=O)N7C[C@H](O)C[C@H]7C(=O)N[C@@H](C)c7ccc(-c8scnc8C)cc7)C(C)C)on6)CC5)nc4c3F)c12 [Compound 101, (2S,4R)-1-[(2R)-2-[3-({1-[(2R)-2-[(4-{3,8-diazabicyclo[3.2.1]octan-3-yl}-7-(8-ethyl-3-hydroxynaphthalen-1-yl)-8-fluoropyrido[4,3-d]pyrimidin-2-yl)oxy]propyl]piperidin-4-yl}methoxy)-1,2-oxazol-5-yl]-3-methylbutanoyl]-4-hydroxy-N-[(1S)-1-[4-(4-methyl-1,3-thiazol-5-yl)phenyl]ethyl]pyrrolidine-2-carboxamide]	60 to 80%	< 0.6 µM
